Reference: patent publication EP4635500A1, “THERAPEUTIC AGENT FOR BACTERIAL INFECTION” (Sumitomo Pharma Co., Ltd., priority 2022, dated 2024)
≈ marks a conversion by molar mass, not a printed value. Like-named read-outs stand apart in the source and are kept apart here.

Test system: carbapenemase-producing Enterobacteriaceae (CPE)
Experiment: MIC in human urine and CAMHB at pH 5.0 to 8.0 (Example 13, Tables 29, 30)

C[C@@H](O)[C@H]1C(=O)N2C(C(=O)O)=C(S[C@@H]3CN[C@H](C(=O)N(C)C)C3)[C@H](C)[C@H]12 [MEPM, meropenem]
MIC (Escherichia coli, ATCC25922, pH 5, read-out: MICs of MEPM, E. coli ATCC 25922 (QC strain), CAMHB pH5.0): 0.12 µg/mL (≈ 0.313 µM)
MIC (Escherichia coli, ATCC25922, pH 5, read-out: MICs of MEPM, E. coli ATCC 25922 (QC strain), Human urine pH5.0): 0.12 µg/mL (≈ 0.313 µM)
MIC (Escherichia coli, ATCC25922, pH 6, read-out: MICs of MEPM, E. coli ATCC 25922 (QC strain), CAMHB pH6.0): 0.06 µg/mL (≈ 0.156 µM)
MIC (Escherichia coli, ATCC25922, pH 6, read-out: MICs of MEPM, E. coli ATCC 25922 (QC strain), Human urine pH6.0): 0.03 µg/mL (≈ 0.0782 µM)
MIC (Escherichia coli, ATCC25922, pH 7, read-out: MICs of MEPM, E. coli ATCC 25922 (QC strain), Human urine pH7.0): 0.015 µg/mL (≈ 0.0391 µM)
MIC (Escherichia coli, ATCC25922, pH 7.2, read-out: MICs of MEPM, E. coli ATCC 25922 (QC strain), Standard condition (CAMHB pH7.2)): 0.03 µg/mL (≈ 0.0782 µM)
MIC (Escherichia coli, ATCC25922, pH 8, read-out: MICs of MEPM, E. coli ATCC 25922 (QC strain), CAMHB pH8.0): 0.015 µg/mL (≈ 0.0391 µM)
MIC (Escherichia coli, ATCC25922, pH 8, read-out: MICs of MEPM, E. coli ATCC 25922 (QC strain), Human urine pH8.0): 0.015 µg/mL (≈ 0.0391 µM)
MIC (Escherichia coli, ATCCBAA2340, pH 5, read-out: MICs of MEPM, E. coli ATCC BAA-2340 (KPC-3), CAMHB pH5.0): 2 µg/mL (≈ 5.22 µM)
MIC (Escherichia coli, ATCCBAA2340, pH 5, read-out: MICs of MEPM, E. coli ATCC BAA-2340 (KPC-3), Human urine pH5.0): 1 µg/mL (≈ 2.61 µM)
MIC (Escherichia coli, ATCCBAA2340, pH 6, read-out: MICs of MEPM, E. coli ATCC BAA-2340 (KPC-3), CAMHB pH6.0): 8 µg/mL (≈ 20.9 µM)
MIC (Escherichia coli, ATCCBAA2340, pH 6, read-out: MICs of MEPM, E. coli ATCC BAA-2340 (KPC-3), Human urine pH6.0): 1 µg/mL (≈ 2.61 µM)
MIC (Escherichia coli, ATCCBAA2340, pH 7, read-out: MICs of MEPM, E. coli ATCC BAA-2340 (KPC-3), Human urine pH7.0): 2 µg/mL (≈ 5.22 µM)
MIC (Escherichia coli, ATCCBAA2340, pH 7.2, read-out: MICs of MEPM, E. coli ATCC BAA-2340 (KPC-3), Standard condition (CAMHB pH7.2)): 8 µg/mL (≈ 20.9 µM)
MIC (Escherichia coli, ATCCBAA2340, pH 8, read-out: MICs of MEPM, E. coli ATCC BAA-2340 (KPC-3), CAMHB pH8.0): 4 µg/mL (≈ 10.4 µM)
MIC (Escherichia coli, ATCCBAA2340, pH 8, read-out: MICs of MEPM, E. coli ATCC BAA-2340 (KPC-3), Human urine pH8.0): 8 µg/mL (≈ 20.9 µM)
MIC (Escherichia coli, ATCCBAA2469, pH 5, read-out: MICs of MEPM, E. coli ATCC BAA-2469 (NDM-1), CAMHB pH5.0): 0.12 µg/mL (≈ 0.313 µM)
MIC (Escherichia coli, ATCCBAA2469, pH 5, read-out: MICs of MEPM, E. coli ATCC BAA-2469 (NDM-1), Human urine pH5.0): 0.12 µg/mL (≈ 0.313 µM)
MIC (Escherichia coli, ATCCBAA2469, pH 6, read-out: MICs of MEPM, E. coli ATCC BAA-2469 (NDM-1), CAMHB pH6.0): 8 µg/mL (≈ 20.9 µM)
MIC (Escherichia coli, ATCCBAA2469, pH 6, read-out: MICs of MEPM, E. coli ATCC BAA-2469 (NDM-1), Human urine pH6.0): 0.12 µg/mL (≈ 0.313 µM)
MIC (Escherichia coli, ATCCBAA2469, pH 7, read-out: MICs of MEPM, E. coli ATCC BAA-2469 (NDM-1), Human urine pH7.0): 16 µg/mL (≈ 41.7 µM)
MIC (Escherichia coli, ATCCBAA2469, pH 7.2, read-out: MICs of MEPM, E. coli ATCC BAA-2469 (NDM-1), Standard condition (CAMHB pH7.2)): 32 µg/mL (≈ 83.4 µM)
MIC (Escherichia coli, ATCCBAA2469, pH 8, read-out: MICs of MEPM, E. coli ATCC BAA-2469 (NDM-1), CAMHB pH8.0): 64 µg/mL (≈ 167 µM)
MIC (Escherichia coli, ATCCBAA2469, pH 8, read-out: MICs of MEPM, E. coli ATCC BAA-2469 (NDM-1), Human urine pH8.0): 8 µg/mL (≈ 20.9 µM)
MIC (Escherichia coli, NCTC13476, pH 5, read-out: MICs of MEPM, E. coli NCTC 13476 (IMP-1), CAMHB pH5.0): 0.25 µg/mL (≈ 0.652 µM)
MIC (Escherichia coli, NCTC13476, pH 5, read-out: MICs of MEPM, E. coli NCTC 13476 (IMP-1), Human urine pH5.0): 0.25 µg/mL (≈ 0.652 µM)
MIC (Escherichia coli, NCTC13476, pH 6, read-out: MICs of MEPM, E. coli NCTC 13476 (IMP-1), CAMHB pH6.0): 1 µg/mL (≈ 2.61 µM)
MIC (Escherichia coli, NCTC13476, pH 6, read-out: MICs of MEPM, E. coli NCTC 13476 (IMP-1), Human urine pH6.0): 0.12 µg/mL (≈ 0.313 µM)
MIC (Escherichia coli, NCTC13476, pH 7, read-out: MICs of MEPM, E. coli NCTC 13476 (IMP-1), Human urine pH7.0): 1 µg/mL (≈ 2.61 µM)
MIC (Escherichia coli, NCTC13476, pH 7.2, read-out: MICs of MEPM, E. coli NCTC 13476 (IMP-1), Standard condition (CAMHB pH7.2)): 4 µg/mL (≈ 10.4 µM)
MIC (Escherichia coli, NCTC13476, pH 8, read-out: MICs of MEPM, E. coli NCTC 13476 (IMP-1), CAMHB pH8.0): 16 µg/mL (≈ 41.7 µM)
MIC (Escherichia coli, NCTC13476, pH 8, read-out: MICs of MEPM, E. coli NCTC 13476 (IMP-1), Human urine pH8.0): 8 µg/mL (≈ 20.9 µM)
MIC (Klebsiella pneumoniae, ATCCBAA2342, pH 5, read-out: MICs of MEPM, K. pneumoniae ATCC BAA-2342 (KPC-3), CAMHB pH5.0): 16 µg/mL (≈ 41.7 µM)
MIC (Klebsiella pneumoniae, ATCCBAA2342, pH 5, read-out: MICs of MEPM, K. pneumoniae ATCC BAA-2342 (KPC-3), Human urine pH5.0): 4 µg/mL (≈ 10.4 µM)
MIC (Klebsiella pneumoniae, ATCCBAA2342, pH 6, read-out: MICs of MEPM, K. pneumoniae ATCC BAA-2342 (KPC-3), CAMHB pH6.0): 16 µg/mL (≈ 41.7 µM)
MIC (Klebsiella pneumoniae, ATCCBAA2342, pH 6, read-out: MICs of MEPM, K. pneumoniae ATCC BAA-2342 (KPC-3), Human urine pH6.0): 8 µg/mL (≈ 20.9 µM)
MIC (Klebsiella pneumoniae, ATCCBAA2342, pH 7, read-out: MICs of MEPM, K. pneumoniae ATCC BAA-2342 (KPC-3), Human urine pH7.0): 16 µg/mL (≈ 41.7 µM)
MIC (Klebsiella pneumoniae, ATCCBAA2342, pH 7.2, read-out: MICs of MEPM, K. pneumoniae ATCC BAA-2342 (KPC-3), Standard condition (CAMHB pH7.2)): 16 µg/mL (≈ 41.7 µM)
MIC (Klebsiella pneumoniae, ATCCBAA2342, pH 8, read-out: MICs of MEPM, K. pneumoniae ATCC BAA-2342 (KPC-3), CAMHB pH8.0): 16 µg/mL (≈ 41.7 µM)
MIC (Klebsiella pneumoniae, ATCCBAA2342, pH 8, read-out: MICs of MEPM, K. pneumoniae ATCC BAA-2342 (KPC-3), Human urine pH8.0): 32 µg/mL (≈ 83.4 µM)
MIC (Klebsiella pneumoniae, ATCCBAA2344, pH 5, read-out: MICs of MEPM, K. pneumoniae ATCC BAA-2344 (KPC-2), CAMHB pH5.0): 8 µg/mL (≈ 20.9 µM)
MIC (Klebsiella pneumoniae, ATCCBAA2344, pH 5, read-out: MICs of MEPM, K. pneumoniae ATCC BAA-2344 (KPC-2), Human urine pH5.0): 2 µg/mL (≈ 5.22 µM)
MIC (Klebsiella pneumoniae, ATCCBAA2344, pH 6, read-out: MICs of MEPM, K. pneumoniae ATCC BAA-2344 (KPC-2), CAMHB pH6.0): 32 µg/mL (≈ 83.4 µM)
MIC (Klebsiella pneumoniae, ATCCBAA2344, pH 6, read-out: MICs of MEPM, K. pneumoniae ATCC BAA-2344 (KPC-2), Human urine pH6.0): 8 µg/mL (≈ 20.9 µM)
MIC (Klebsiella pneumoniae, ATCCBAA2344, pH 7, read-out: MICs of MEPM, K. pneumoniae ATCC BAA-2344 (KPC-2), Human urine pH7.0): 32 µg/mL (≈ 83.4 µM)
MIC (Klebsiella pneumoniae, ATCCBAA2344, pH 7.2, read-out: MICs of MEPM, K. pneumoniae ATCC BAA-2344 (KPC-2), Standard condition (CAMHB pH7.2)): 32 µg/mL (≈ 83.4 µM)
MIC (Klebsiella pneumoniae, ATCCBAA2344, pH 8, read-out: MICs of MEPM, K. pneumoniae ATCC BAA-2344 (KPC-2), CAMHB pH8.0): 32 µg/mL (≈ 83.4 µM)
MIC (Klebsiella pneumoniae, ATCCBAA2344, pH 8, read-out: MICs of MEPM, K. pneumoniae ATCC BAA-2344 (KPC-2), Human urine pH8.0): 32 µg/mL (≈ 83.4 µM)
